Test results reported in publication PMC8190080, “Tanshinones induce tumor cell apoptosis via directly targeting FHIT” (Scientific Reports, 2021).

Legend:
FHIT [1] = target: T1, FHIT (Homo sapiens, UniProt P49789); assay: Cellular MST assay, HEK293T cell lysate containing GFP tagged FHIT; format: binding; conditions: GFP-FHIT in HEK293T cell lysate, 25 °C
T1 construct: GST (N, cleaved yes); made in house; host or cells: E. coli BL21 (DE3)
Method: (§1) Ten million 293 cells overexpressing GFP-tagged FHIT or free GFP were lysed in 0.5 mL M-PER mammalian protein extraction reagent (Thermo Fisher Scientific). Cell lysates were diluted in PBS buffer to a final concentration at which the fluorescent signals of the GFP proteins were suitable for the detection of the Monolith NT.115 instrument (NanoTemper Technologies). A single point screening assay was developed against GFP-FHIT protein to find potential binding molecules from compound libraries (L1021,APExBIO). For binding affinity detection, a 10µL protein sample was mixed with 10µL ligand at various concentrations as indicated. And the purified proteins were labeled by Red- NHS kit in accordance with the manufacturer’s protocol (MO-L011, NanoTemper Technologies). Then the mixture solutions were loaded into NT.115 standard coated capillaries or premium coated capillaries (NanoTemper Technologies), and the MST measurements were performed at 25 °C. The fluorescence signal during the thermophoresis was monitored and the change in fluorescence was analyzed by software. The Kd was calculated by fitting a standard binding curve to the series diluted ligands. And data were analyzed by GraphPad Prism 7.0.

FHIT truncation TR2 = FHIT truncation TR2 (Homo sapiens, UniProt P49789); assay: Cellular MST assay, GFP tagged FHIT truncation TR2; format: binding
Method: as §1

FHIT truncation TR3 = target: T2, FHIT truncation TR3 (Homo sapiens, UniProt P49789); assay: Cellular MST assay, GFP tagged FHIT truncation TR3 (C-terminal only); format: binding
T2 construct: expressed in transfected cells; host or cells: HEK293T / 293 cells (inferred from the cellular MST method)
Method: as §1

GALT = target: T3, GALT (Homo sapiens, UniProt P07902); assay: MST assay, purified GALT; format: binding
T3 construct: 6xHis (N); made in house; host or cells: E. coli BL21(DE3)

HINT1 = target: T4, HINT1 (Homo sapiens, UniProt P49773); assay: MST assay, purified HINT1; format: binding
T4 construct: 6xHis (N); made in house; host or cells: E. coli BL21(DE3)

FHIT [2] = target: T1, FHIT; assay: FHIT hydrolase activity detection assay (Ap3A, ADP-Glo); format: biochemical; conditions: 5 nM FHIT, 500 nM Ap3A, ADP production by ADP-Glo
Method: 5 nM FHIT protein was mixed with series diluted compounds as indicated in assay buffer (20 mM Tris–HCl, 2 mM DTT, 5 mM MgCl2, pH7.5) in a final DMSO concentration of 1% in a total volume of 20 μL. The mixtures were incubated for 30 min at 25 °C, then 500 nM Ap3A was added. After incubation at 25 °C for 5 min, the production of ADP in the reaction system was detected by ADP-Glo reagent (V6930, Promega) according to the manufacturer’s protocol in 384-well. Luminescence was read by spark (TECAN), an integration time of 1 s per well. And the data were analyzed by GraphPad Prism 7.0.

ENPP1 = target: T5, ENPP1 (Homo sapiens, UniProt P22413); assay: ENPP1 hydrolase activity detection assay (Ap3A, ADP-Glo); format: biochemical; conditions: ENPP1 4 ng/µl, 4 µM Ap3A
T5 sequence (P22413 1-925): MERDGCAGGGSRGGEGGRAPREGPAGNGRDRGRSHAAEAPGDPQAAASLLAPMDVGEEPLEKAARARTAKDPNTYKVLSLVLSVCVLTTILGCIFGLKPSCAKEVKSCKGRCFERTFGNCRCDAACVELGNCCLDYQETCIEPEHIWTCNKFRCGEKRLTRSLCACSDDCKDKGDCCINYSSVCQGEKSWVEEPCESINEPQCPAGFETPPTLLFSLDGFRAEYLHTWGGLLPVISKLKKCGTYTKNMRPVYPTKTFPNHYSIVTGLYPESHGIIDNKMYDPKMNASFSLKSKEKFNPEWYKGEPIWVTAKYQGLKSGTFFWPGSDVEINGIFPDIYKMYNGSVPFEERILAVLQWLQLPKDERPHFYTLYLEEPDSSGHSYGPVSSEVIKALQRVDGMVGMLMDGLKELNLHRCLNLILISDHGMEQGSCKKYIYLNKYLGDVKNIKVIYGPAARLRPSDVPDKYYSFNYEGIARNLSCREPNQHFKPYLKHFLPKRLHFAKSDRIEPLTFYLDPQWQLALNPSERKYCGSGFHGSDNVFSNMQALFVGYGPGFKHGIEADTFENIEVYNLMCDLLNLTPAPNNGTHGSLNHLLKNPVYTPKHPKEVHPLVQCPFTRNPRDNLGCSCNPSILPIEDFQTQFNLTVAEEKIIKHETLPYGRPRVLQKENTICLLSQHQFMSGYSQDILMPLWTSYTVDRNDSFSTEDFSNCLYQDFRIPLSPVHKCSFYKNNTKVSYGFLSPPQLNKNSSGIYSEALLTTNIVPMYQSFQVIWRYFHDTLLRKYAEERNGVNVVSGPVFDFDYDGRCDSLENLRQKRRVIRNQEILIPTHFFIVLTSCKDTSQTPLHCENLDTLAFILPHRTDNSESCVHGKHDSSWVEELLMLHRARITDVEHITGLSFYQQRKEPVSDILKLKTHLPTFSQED
Method: ENPP1 protein (4ng/µl) was mixed with series diluted compounds as indicated in assay buffer (50mM Tris-HCl, 2mM CaCl2, 2mM MgCl2, pH9.0) in a final DMSO concentration of 1% in a total volume of 20μL. The mixtures were incubated for 30min at 25°C, then 4µM Ap3A was added. After incubation at 25°C for 10min, ENPP1 should be inactivated at 85°C for 5min.
Then the production of ADP in the reaction system was detected by ADP-Glo reagent (V6930, Promega) according to the manufacturer’s protocol in 384-well. Luminescence was read by spark (TECAN), an integration time of 1 second per well. And the data were analyzed by

HCT116 cells = assay: CCK-8 assay for cell inhibitory rate; format: cell-based, human; conditions: WT HCT116 cells, concentration as high as 100 µM
Method: The CCK-8 (Cell-Counting Kit-8) assay was used to detect the cells’inhibitory rate following the manufacturer’s protocol (APExBIO). Cells were seeded into 96-well plates at the density of 4 × 10^3(cells/well) overnight at 37 °C. After that, the culture medium was removed and the cells were treated with different concentrations of TSA (0, 1, 2, 5, 10 µM) or STS (0, 10, 25, 50, 100 µM) for 24 h, 48 h, 72 h respectively. Then 10 μL CCK-8 reagent was added into each well and incubated for another 2 h, OD450 was measured by a microplate reader (spark, TECAN).

T1 sequence (P49789 whole entry): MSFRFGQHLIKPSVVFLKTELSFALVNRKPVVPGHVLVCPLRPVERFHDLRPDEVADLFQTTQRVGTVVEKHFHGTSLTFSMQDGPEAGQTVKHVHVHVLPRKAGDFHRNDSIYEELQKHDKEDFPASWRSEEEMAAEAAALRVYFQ
T3 sequence (P07902 whole entry): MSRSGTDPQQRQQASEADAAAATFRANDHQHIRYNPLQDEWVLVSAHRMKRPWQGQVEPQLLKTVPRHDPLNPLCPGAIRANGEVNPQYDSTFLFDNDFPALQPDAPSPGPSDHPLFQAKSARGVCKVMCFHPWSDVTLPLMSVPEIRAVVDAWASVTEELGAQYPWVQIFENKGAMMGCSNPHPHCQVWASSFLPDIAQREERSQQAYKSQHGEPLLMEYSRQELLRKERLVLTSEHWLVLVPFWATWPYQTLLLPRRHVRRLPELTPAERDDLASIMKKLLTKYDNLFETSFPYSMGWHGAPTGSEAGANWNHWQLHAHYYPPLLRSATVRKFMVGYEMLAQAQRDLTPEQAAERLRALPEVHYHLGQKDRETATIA
T2 sequence (P49789 109-147 limits assumed): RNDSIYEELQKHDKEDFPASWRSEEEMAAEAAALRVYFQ
T4 sequence (P49773 whole entry): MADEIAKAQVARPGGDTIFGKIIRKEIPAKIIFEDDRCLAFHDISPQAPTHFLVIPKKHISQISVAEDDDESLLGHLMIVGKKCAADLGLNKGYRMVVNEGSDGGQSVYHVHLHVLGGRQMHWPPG
FHIT truncation TR2, sequence (P49789 whole entry, the tested form may be a part): as the sequence (P49789 whole entry) above

Kd (FHIT [1]): 268 ± 42.6 nM | Kd (FHIT truncation TR2): 58.2 µM | Kd (FHIT truncation TR3): No Kd value was calculated | Kd (GALT): 12.9 ± 0.54 µM | direct binding (MST binding curve) (HINT1): no direct binding curve was observed | IC50 (FHIT [2]): 340 ± 90 nM | IC50 (ENPP1): 57.9 ± 15.1 µM
SMILES: Cc1c(S(=O)(=O)O)oc2c1C(=O)C(=O)c1c-2ccc2c1CCCC2(C)C [STS, Sodium tanshinone IIA sulfonate]
cytotoxicity (CCK8) (HCT116 cells): no cytotoxicity
